Data on two compounds can be found in ChEMBL document CHEMBL1909046, “DrugMatrix in vitro pharmacology data”.

Sequence of Cytochrome P450 2C9 (P11712 whole entry): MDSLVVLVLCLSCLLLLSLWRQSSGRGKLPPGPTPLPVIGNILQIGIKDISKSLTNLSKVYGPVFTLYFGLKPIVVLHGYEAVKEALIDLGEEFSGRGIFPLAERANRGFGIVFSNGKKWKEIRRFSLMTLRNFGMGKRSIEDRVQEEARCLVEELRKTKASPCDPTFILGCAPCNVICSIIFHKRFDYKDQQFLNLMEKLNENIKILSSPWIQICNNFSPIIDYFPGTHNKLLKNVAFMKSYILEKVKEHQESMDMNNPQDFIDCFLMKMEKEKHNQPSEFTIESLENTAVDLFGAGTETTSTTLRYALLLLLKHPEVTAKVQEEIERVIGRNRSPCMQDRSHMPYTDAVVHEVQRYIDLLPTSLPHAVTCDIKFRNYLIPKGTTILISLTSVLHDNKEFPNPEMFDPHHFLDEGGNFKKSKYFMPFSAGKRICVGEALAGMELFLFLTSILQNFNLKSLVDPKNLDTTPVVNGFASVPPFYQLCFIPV
Sequence of Cannabinoid receptor 1 (P21554 whole entry): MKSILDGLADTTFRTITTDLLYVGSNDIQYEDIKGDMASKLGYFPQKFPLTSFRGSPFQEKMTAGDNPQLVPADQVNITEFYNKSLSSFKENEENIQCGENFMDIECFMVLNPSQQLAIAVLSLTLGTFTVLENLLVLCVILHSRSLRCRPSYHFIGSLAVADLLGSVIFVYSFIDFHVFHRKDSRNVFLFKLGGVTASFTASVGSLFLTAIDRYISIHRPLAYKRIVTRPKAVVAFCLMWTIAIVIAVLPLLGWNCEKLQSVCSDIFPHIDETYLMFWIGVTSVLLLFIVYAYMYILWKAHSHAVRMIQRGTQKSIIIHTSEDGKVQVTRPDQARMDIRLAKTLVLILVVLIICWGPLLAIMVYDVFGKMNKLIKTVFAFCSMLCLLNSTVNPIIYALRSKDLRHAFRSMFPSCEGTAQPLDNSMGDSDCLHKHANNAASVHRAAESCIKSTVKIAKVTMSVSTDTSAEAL
Sequence of Beta-2 adrenergic receptor (P07550 whole entry): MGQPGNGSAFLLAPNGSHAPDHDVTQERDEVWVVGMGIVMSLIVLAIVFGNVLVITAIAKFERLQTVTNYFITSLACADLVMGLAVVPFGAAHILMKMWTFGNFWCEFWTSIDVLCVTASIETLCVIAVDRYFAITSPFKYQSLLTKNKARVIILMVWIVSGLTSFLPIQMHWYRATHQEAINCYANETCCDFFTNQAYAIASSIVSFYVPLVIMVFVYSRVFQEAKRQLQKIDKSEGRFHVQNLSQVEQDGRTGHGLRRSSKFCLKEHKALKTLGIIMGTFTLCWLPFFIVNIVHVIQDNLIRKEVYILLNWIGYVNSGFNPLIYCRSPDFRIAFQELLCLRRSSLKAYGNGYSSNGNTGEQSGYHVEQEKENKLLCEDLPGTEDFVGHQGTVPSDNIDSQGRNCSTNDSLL
Sequence of Kappa-type opioid receptor (P41145 whole entry): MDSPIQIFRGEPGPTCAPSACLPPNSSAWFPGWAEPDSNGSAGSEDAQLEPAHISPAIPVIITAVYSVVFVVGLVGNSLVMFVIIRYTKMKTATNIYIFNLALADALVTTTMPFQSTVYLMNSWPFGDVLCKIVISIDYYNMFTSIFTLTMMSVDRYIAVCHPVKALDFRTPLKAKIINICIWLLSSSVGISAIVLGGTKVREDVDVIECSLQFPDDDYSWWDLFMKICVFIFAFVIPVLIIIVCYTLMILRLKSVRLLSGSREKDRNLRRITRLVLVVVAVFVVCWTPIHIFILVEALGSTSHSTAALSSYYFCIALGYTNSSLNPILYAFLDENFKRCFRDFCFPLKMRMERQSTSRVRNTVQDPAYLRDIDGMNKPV

Test system in one series: not listed separately
The experiment in a line: DRUGMATRIX: Calcium Channel Type L, Dihydropyridine radioligand binding (ligand: [3H] Nitrendipine). The series is classed as cell membranes, Rattus norvegicus, Wistar, Cerebral cortex, Membrane. Particulars: Not Active = under 50% inhibition at 10 µM.
Take `CC1(C)S[C@@H]2[C@H](NC(=O)[C@H](NC(=O)N3CCNC3=O)c3ccccc3)C(=O)N2[C@H]1C(=O)O` [AZLOCILLIN]: the IC50 entry was “Not Active” and the Ki result is reported as “Not Active”.
With `CCOC(=O)OC(C)OC1=C(C(=O)Nc2ccccn2)N(C)S(=O)(=O)c2ccccc21` (stereo not drawn) [AMPIROXICAM], the IC50 result is on record as “Not Active” and the Ki result was “Not Active”.

The next series concerns the target Kappa-type opioid receptor (Homo sapiens, UniProt P41145). The experiment in a line: DRUGMATRIX: Opiate kappa (OP2, KOP) radioligand binding (ligand: [3H] Diprenorphine). The settings on record: hek293; Not Active = under 50% inhibition at 10 µM. It is filed as cell membranes, HEK293, Membrane.
Turning to `CC1(C)S[C@@H]2[C@H](NC(=O)[C@H](NC(=O)N3CCNC3=O)c3ccccc3)C(=O)N2[C@H]1C(=O)O` [AZLOCILLIN], the IC50 result is given as “Not Active”.
The same measure, in the same setting: the same measure for `CCOC(=O)OC(C)OC1=C(C(=O)Nc2ccccn2)N(C)S(=O)(=O)c2ccccc21` (stereo not drawn) [AMPIROXICAM]: “Not Active”.

A further series addresses Cannabinoid receptor 1 (Homo sapiens, UniProt P21554). The series is classed as cell membranes, Membrane. The settings on record: chem-1.
In the case of `CC1(C)S[C@@H]2[C@H](NC(=O)[C@H](NC(=O)N3CCNC3=O)c3ccccc3)C(=O)N2[C@H]1C(=O)O` [AZLOCILLIN], the IC50 result was “Not Active”.
As for `CCOC(=O)OC(C)OC1=C(C(=O)Nc2ccccn2)N(C)S(=O)(=O)c2ccccc21` (stereo not drawn) [AMPIROXICAM], the IC50 entry was “Not Active”.

Test system in the next series: not listed separately
The experiment in a line: DRUGMATRIX: GABAA, Flunitrazepam, Central radioligand binding (ligand: [3H] Flunitrazepam). It is filed as cell membranes, Rattus norvegicus, Wistar, Brain, Membrane. Particulars: Not Active = under 50% inhibition at 10 µM.
With `CC1(C)S[C@@H]2[C@H](NC(=O)[C@H](NC(=O)N3CCNC3=O)c3ccccc3)C(=O)N2[C@H]1C(=O)O` [AZLOCILLIN], the IC50 result is “Not Active” and the Ki entry was “Not Active”.
For `CCOC(=O)OC(C)OC1=C(C(=O)Nc2ccccn2)N(C)S(=O)(=O)c2ccccc21` (stereo not drawn) [AMPIROXICAM], the IC50 result was “Not Active” and the Ki entry was “Not Active”.

Another series concerns the target Protein phosphatase 3 catalytic subunit alpha (Homo sapiens, UniProt Q08209). Set-up: species or system Escherichia coli.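 Note: inhibition of calcineurin (PP2B) enzyme activity, measured with DiFMUP as the substrate; in other assays of this panel Not Active means under 50% inhibition at 10 µM.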
Conditions: not given
On to `CC1(C)S[C@@H]2[C@H](NC(=O)[C@H](NC(=O)N3CCNC3=O)c3ccccc3)C(=O)N2[C@H]1C(=O)O` [AZLOCILLIN], for which the IC50 result is recorded as “Not Active”.
For the compound `CCOC(=O)OC(C)OC1=C(C(=O)Nc2ccccn2)N(C)S(=O)(=O)c2ccccc21` (stereo not drawn) [AMPIROXICAM], the IC50 result is recorded as “Not Active”.

A further series addresses Beta-2 adrenergic receptor (Homo sapiens, UniProt P07550). As to the kind of experiment: DRUGMATRIX: Adrenergic beta2 radioligand binding (ligand: [3H] CGP-12177). The settings on record: cho; Not Active = under 50% inhibition at 10 µM. The series is classed as cell membranes, Membrane.
Take `CC1(C)S[C@@H]2[C@H](NC(=O)[C@H](NC(=O)N3CCNC3=O)c3ccccc3)C(=O)N2[C@H]1C(=O)O` [AZLOCILLIN]: the IC50 entry is on record as “Not Active”.
As for `CCOC(=O)OC(C)OC1=C(C(=O)Nc2ccccn2)N(C)S(=O)(=O)c2ccccc21` (stereo not drawn) [AMPIROXICAM], the IC50 entry was “Not Active”.

Another series deals with T1, Alpha-2C adrenergic receptor (Homo sapiens, UniProt P18825).
T1 sequence (P18825 whole entry): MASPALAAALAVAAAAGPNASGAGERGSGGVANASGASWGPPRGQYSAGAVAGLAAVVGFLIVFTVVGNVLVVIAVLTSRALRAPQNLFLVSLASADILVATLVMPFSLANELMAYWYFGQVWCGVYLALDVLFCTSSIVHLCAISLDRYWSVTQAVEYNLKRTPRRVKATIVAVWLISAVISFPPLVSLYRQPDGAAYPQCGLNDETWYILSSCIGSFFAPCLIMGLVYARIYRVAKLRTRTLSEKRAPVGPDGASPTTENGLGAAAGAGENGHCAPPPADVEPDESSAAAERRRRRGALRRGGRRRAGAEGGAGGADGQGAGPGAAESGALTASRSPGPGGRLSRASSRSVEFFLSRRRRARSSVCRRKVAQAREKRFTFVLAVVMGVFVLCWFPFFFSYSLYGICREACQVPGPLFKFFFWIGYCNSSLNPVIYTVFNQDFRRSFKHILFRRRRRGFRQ
As to the kind of experiment: DRUGMATRIX: Adrenergic Alpha-2C radioligand binding (ligand: [3H] MK-912). The series is classed as cell membranes, Sf9, Membrane. The settings on record: sf9.
For `CC1(C)S[C@@H]2[C@H](NC(=O)[C@H](NC(=O)N3CCNC3=O)c3ccccc3)C(=O)N2[C@H]1C(=O)O` [AZLOCILLIN], the IC50 result was “Not Active”.
`CCOC(=O)OC(C)OC1=C(C(=O)Nc2ccccn2)N(C)S(=O)(=O)c2ccccc21` (stereo not drawn) [AMPIROXICAM]: the IC50 entry is on record as “Not Active”.

The next series deals with Sodium-dependent noradrenaline transporter (Homo sapiens, UniProt P23975). The experiment in a line: DRUGMATRIX: Norepinephrine Transporter radioligand binding (ligand: [125I] RTI-55). It is filed as cell membranes, MDCK, Membrane. Particulars: mdck; Not Active = under 50% inhibition at 10 µM.
Sequence of Sodium-dependent noradrenaline transporter (P23975 whole entry): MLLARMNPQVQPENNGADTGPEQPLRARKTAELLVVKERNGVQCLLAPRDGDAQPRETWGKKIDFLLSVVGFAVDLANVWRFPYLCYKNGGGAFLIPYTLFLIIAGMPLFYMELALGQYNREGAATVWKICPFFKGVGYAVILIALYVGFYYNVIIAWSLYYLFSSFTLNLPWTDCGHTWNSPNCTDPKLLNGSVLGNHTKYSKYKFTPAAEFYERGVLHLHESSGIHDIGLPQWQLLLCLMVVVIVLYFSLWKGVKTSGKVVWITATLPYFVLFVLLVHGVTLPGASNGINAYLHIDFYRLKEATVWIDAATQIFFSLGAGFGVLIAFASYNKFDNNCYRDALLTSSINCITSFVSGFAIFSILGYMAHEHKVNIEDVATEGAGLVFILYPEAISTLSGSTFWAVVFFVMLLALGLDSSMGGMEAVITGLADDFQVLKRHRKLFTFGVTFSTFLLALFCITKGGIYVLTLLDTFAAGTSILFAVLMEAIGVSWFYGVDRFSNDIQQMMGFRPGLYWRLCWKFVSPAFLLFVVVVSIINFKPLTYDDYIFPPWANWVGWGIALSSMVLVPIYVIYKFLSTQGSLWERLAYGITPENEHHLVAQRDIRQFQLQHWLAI
For `CC1(C)S[C@@H]2[C@H](NC(=O)[C@H](NC(=O)N3CCNC3=O)c3ccccc3)C(=O)N2[C@H]1C(=O)O` [AZLOCILLIN], the IC50 result is “Not Active”.
Still for that read-out and setting: under `CCOC(=O)OC(C)OC1=C(C(=O)Nc2ccccn2)N(C)S(=O)(=O)c2ccccc21` (stereo not drawn) [AMPIROXICAM] stands “Not Active”.

Another series addresses T2, Endothelin-1 receptor (Homo sapiens, UniProt P25101).
T2 sequence (P25101 whole entry): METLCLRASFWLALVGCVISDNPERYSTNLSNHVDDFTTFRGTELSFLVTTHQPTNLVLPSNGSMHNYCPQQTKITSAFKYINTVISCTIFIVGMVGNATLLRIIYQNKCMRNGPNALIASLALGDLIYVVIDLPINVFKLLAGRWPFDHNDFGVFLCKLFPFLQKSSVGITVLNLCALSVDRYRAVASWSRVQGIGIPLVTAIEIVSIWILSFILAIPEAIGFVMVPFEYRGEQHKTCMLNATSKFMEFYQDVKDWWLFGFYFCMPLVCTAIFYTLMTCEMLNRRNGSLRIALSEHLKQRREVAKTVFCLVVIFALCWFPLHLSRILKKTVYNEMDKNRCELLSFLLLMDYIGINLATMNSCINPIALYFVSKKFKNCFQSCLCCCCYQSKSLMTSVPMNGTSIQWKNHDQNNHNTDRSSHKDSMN
The series is classed as cell membranes, Membrane. The settings on record: cho-k1.
Turning to `CC1(C)S[C@@H]2[C@H](NC(=O)[C@H](NC(=O)N3CCNC3=O)c3ccccc3)C(=O)N2[C@H]1C(=O)O` [AZLOCILLIN], the IC50 entry is “Not Active”.
On to `CCOC(=O)OC(C)OC1=C(C(=O)Nc2ccccn2)N(C)S(=O)(=O)c2ccccc21` (stereo not drawn) [AMPIROXICAM], for which the IC50 result was “Not Active”.

A further series addresses Cytochrome P450 2C9 (Homo sapiens, UniProt P11712). Particulars: bti-tn-5b1-4.
As for `CC1(C)S[C@@H]2[C@H](NC(=O)[C@H](NC(=O)N3CCNC3=O)c3ccccc3)C(=O)N2[C@H]1C(=O)O` [AZLOCILLIN], the IC50 result is recorded as “Not Active” and the Ki entry is reported as “Not Active”.
Take `CCOC(=O)OC(C)OC1=C(C(=O)Nc2ccccn2)N(C)S(=O)(=O)c2ccccc21` (stereo not drawn) [AMPIROXICAM]: the IC50 result was “Not Active” and the Ki entry is “Not Active”.

Test system in another series: not listed separately
As to the kind of experiment: DRUGMATRIX: Phosphodiesterase PDE3 enzyme inhibition (substrate: [3H]cAMP + cAMP). The series is classed as tissue-based, Homo sapiens. Particulars: platelet; Not Active = under 50% inhibition at 10 µM.
`CC1(C)S[C@@H]2[C@H](NC(=O)[C@H](NC(=O)N3CCNC3=O)c3ccccc3)C(=O)N2[C@H]1C(=O)O` [AZLOCILLIN]: the IC50 entry is reported as “Not Active” and the Ki result is “Not Active”.
For the compound `CCOC(=O)OC(C)OC1=C(C(=O)Nc2ccccn2)N(C)S(=O)(=O)c2ccccc21` (stereo not drawn) [AMPIROXICAM], the IC50 result is on record as “Not Active” and the Ki result is recorded as “Not Active”.

Another series has as its target T3, Muscarinic acetylcholine receptor M2 (Homo sapiens, UniProt P08172). Note: in other assays of this panel Not Active means under 50% inhibition at 10 µM.
T3 sequence (P08172 whole entry): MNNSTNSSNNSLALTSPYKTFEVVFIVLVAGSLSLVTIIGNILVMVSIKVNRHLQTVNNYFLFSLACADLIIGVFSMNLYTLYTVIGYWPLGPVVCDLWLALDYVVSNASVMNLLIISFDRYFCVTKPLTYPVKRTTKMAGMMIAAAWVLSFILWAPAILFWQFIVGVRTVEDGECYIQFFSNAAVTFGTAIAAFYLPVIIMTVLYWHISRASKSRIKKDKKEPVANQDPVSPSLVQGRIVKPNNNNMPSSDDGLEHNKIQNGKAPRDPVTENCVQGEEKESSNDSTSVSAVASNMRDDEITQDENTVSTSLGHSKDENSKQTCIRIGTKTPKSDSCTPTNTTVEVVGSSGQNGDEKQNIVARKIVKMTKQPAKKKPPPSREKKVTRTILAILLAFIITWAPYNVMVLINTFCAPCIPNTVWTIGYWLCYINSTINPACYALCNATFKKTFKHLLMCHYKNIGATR
The series is classed as cell membranes, CHO-K1, Membrane. Particulars: cho-k1.
As for `CC1(C)S[C@@H]2[C@H](NC(=O)[C@H](NC(=O)N3CCNC3=O)c3ccccc3)C(=O)N2[C@H]1C(=O)O` [AZLOCILLIN], the IC50 result is reported as “Not Active”.
Same read-out and setting: the same measure for `CCOC(=O)OC(C)OC1=C(C(=O)Nc2ccccn2)N(C)S(=O)(=O)c2ccccc21` (stereo not drawn) [AMPIROXICAM]: “Not Active”.

Test system in the next series: not listed separately
The experiment in a line: DRUGMATRIX: Atrial Natriuretic Factor (ANF) radioligand binding (ligand: [125I] ANF (rat)). Particulars: Not Active = under 50% inhibition at 10 µM. It is filed as cell membranes, Cavia porcellus, Dunkin-Hartley, Adrenal gland, Membrane.
For `CC1(C)S[C@@H]2[C@H](NC(=O)[C@H](NC(=O)N3CCNC3=O)c3ccccc3)C(=O)N2[C@H]1C(=O)O` [AZLOCILLIN], the IC50 entry was “Not Active” and the Ki entry is “Not Active”.
As for `CCOC(=O)OC(C)OC1=C(C(=O)Nc2ccccn2)N(C)S(=O)(=O)c2ccccc21` (stereo not drawn) [AMPIROXICAM], the IC50 result was “Not Active” and the Ki result is listed as “Not Active”.

In another series the target is T4, 5-hydroxytryptamine receptor 1A (Rattus norvegicus, UniProt P19327). Note: in other assays of this panel Not Active means under 50% inhibition at 10 µM.
T4 sequence (P19327 whole entry): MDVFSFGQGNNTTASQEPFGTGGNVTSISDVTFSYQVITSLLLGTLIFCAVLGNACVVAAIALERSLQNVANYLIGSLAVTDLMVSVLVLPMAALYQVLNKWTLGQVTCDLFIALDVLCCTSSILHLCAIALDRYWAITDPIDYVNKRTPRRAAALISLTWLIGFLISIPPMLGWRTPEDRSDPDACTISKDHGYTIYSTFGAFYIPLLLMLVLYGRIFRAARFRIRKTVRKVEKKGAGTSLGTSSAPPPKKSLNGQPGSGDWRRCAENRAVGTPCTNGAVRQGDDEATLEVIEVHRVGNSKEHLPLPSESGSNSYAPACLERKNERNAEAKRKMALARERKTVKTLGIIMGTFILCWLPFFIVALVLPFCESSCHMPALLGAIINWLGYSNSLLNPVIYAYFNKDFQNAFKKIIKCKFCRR
The series is classed as cell membranes, CHO-K1, Membrane. Particulars: cho-k1.
On to `CC1(C)S[C@@H]2[C@H](NC(=O)[C@H](NC(=O)N3CCNC3=O)c3ccccc3)C(=O)N2[C@H]1C(=O)O` [AZLOCILLIN], for which the IC50 entry was “Not Active”.
Turning to `CCOC(=O)OC(C)OC1=C(C(=O)Nc2ccccn2)N(C)S(=O)(=O)c2ccccc21` (stereo not drawn) [AMPIROXICAM], the IC50 result is recorded as “Not Active”.
